Results: US8598221B2 (priority 2009, dated 2013)

System: cramps induced by acetic acid in the mouse
Assay: animal or person
Assay type: in vivo
Procedure: The analgesic effect of a nefopam-celecoxib combination was investigated in the model of abdominal cramps induced in the mouse by intraperitoneal administration of acetic acid. This model of pain induced by a chemical substance corresponds to inflammatory, visceral and acute pain.
Male CD1 mice (bred: C. River) weighing between 25 and 30 grams are used after an acclimatization for at least 7 days in the animal house (temp.=22±2; humidity=50±20%; food SAFE “A04”; nyctohemeral cycle: 12 h/12 h (light: 7 h/19 h−darkness: 19 h/7 h)). • 2. Protocol
On the day of the experiment, the non-fasting mice are weighed, marked and distributed at random in batches of 10. The acetic acid solution (Sigma) is prepared at 0.6%, or 60 mg of acetic acid in 10 ml of 0.9% NaCl.
At t=0, the mouse receives celecoxib by the oral route. At t=30 min, the mouse is administered nefopam or its liquid vehicle by the subcutaneous route. At t=60 min, the acetic acid is injected intraperitoneally (0.1 ml/10 g).
The number of abdominal cramps is counted from 5 to 20 minutes after injection of acetic acid. Frank abdominal cramps characterized by stretching of the hindpaws and/or hollowing of the flanks with twisting are regarded as positive. • 3. Products
Nefopam hydrochloride (Biocodex, batch 38) (called simply nefopam hereunder) is dissolved in distilled water or 0.9% NaCl. Celecoxib (Celebrex® capsules) is suspended in Tween 80 at 1%. • 4. Statistical Analysis
The test used is an analysis of variance for 3 or more groups and a Student t-test for 2 groups. Then the treated group or groups that differ from the control group are determined. […] At least 10 mice are used for each dose, and at least 3 doses are used for determining the dose-response curve. The dose that produces 50% of antinociceptive effect (50% decrease in number of cramps) is calculated by a standard linear regression analysis of the dose-response curve.
The interaction is evaluated by an isobolographic analysis of the co-administration of a combination of doses at fixed ratio according to Tallarida (2000) op. cit., Tallarida et al. (1989) Life Sci. 45:947-961 and Tallarida et al. (1997) Life Sci. 61:PL417-PL425. The isobologram is constructed by joining the ED50 of celecoxib with that of nefopam to obtain the line of additivity. The ED50 of the combination is determined by linear regression analysis of the dose-response curve, and it is compared by a t-test with a theoretical additive ED50 obtained using the PharmToolsPro software.

## Cc1ccc(-c2cc(C(F)(F)F)nn2-c2ccc(S(N)(=O)=O)cc2)cc1 [Celecoxib, celecoxib]
Mus musculus, read-out: ED50 (dose producing 50% decrease in number of cramps)
  ED50: 40.2 ± 8.06 mg/kg
Celecoxib 10 mg/kg oral
  % variation of number of cramps: −9%
  Number of cramps (mean ± SEM): 28.2 ± 2.9
Celecoxib 20 mg/kg oral
  % variation of number of cramps: −42%
  Number of cramps (mean ± SEM): 18.1 ± 3.2
Celecoxib 50 mg/kg oral
  % variation of number of cramps: −39%
  Number of cramps (mean ± SEM): 18.9 ± 2.2
Celecoxib 75 mg/kg oral
  % variation of number of cramps: −72%
  Number of cramps (mean ± SEM): 8.6 ± 2.1
Celecoxib 150 mg/kg oral
  % variation of number of cramps: −90%
  Number of cramps (mean ± SEM): 3.2 ± 1.0
